The values below come from patent publication US10183019B2, “Treatment of cancer with dihydropyrazino-pyrazines” (Signal Pharmaceuticals, LLC, priority 2013, dated 2019).

Usually IC50 stands for the point on the concentration scale where inhibition reaches its midpoint.

The subject of test [1] is patient-derived GBM cell line 217. Kind of test: Gliomasphere Formation Assay. The conditions noted are these: cell line 217, Primary; 50% sphere formation vs DMSO control. The format is cell-based. As to the method: (§1) Primary patient-derived GBM tumor samples were dissociated and plated under culture conditions (i.e. DMEM/F12 medium supplemented with B27, 20 ng/mL bFGF, 50 ng/mL EGF, penicillin/streptomycin, L-glutamine and 5 ug/mL heparin) that produce gliomaspheres. Cells were plated at a density of 50 cells per well and allowed to acclimate overnight at 37° C. The Dihydropyrazino-Pyrazine Compounds were added to the cultures on Day 2 and replenished every 7 days. EGF and FGF were also replenished every 7 days. The cells were fixed with PFA/methanol when the smallest sphere was greater than 60 microns, typically 3-5 weeks. The cells were fixed with PFA/methanol and the next day assessed for cell number, using for example, SYTO-9 fluorescent DNA dye. Plates were read 48 h later with a laser scanning imager.

The test system of test [2] is patient-derived GBM cell line 296. Kind of test: Gliomasphere Formation Assay. The format is cell-based. The conditions noted are these: cell line 296, Recurrent, MGMT status −; 50% sphere formation vs DMSO control. As to the method: as §1
Test [3] has as its system patient-derived GBM cell line 350. The experiment in a line: Gliomasphere Formation Assay. To be noted: cell line 350, Recurrent; 50% sphere formation vs DMSO control. The class given is cell-based. As to the method:
as §1

For test [4], the system named is patient-derived GBM cell line 245. The experiment in a line: Gliomasphere Formation Assay. The format is cell-based. The conditions noted are these: cell line 245, Recurrent; 50% sphere formation vs DMSO control. As for the experimental part:
as §1

Test [5] has as its system patient-derived GBM cell line 308. Kind of test: Gliomasphere Formation Assay. The class given is cell-based. The conditions noted are these: cell line 308, Recurrent, MGMT Unkn/Highly Expressed; 50% sphere formation vs DMSO control. As for the experimental part:
as §1

The subject of test [6] is patient-derived GBM cell line 217. The experiment in a line: Gliomasphere Cell Number Assay. The format is cell-based. To be noted: cell line 217, Primary; 50% cell numbers vs DMSO control, Day 2 to Day 9; read-out: IC50 Cell Survival. As to the method: (§2) Gliomasphere Cell Number Assay. Primary patient-derived GBM tumor samples were dissociated and plated under culture conditions that produce gliomaspheres (i.e. DMEM/F12 medium supplemented with B27, 20 ng/mL bFGF, 50 ng/mL EGF, penicillin/streptomycin, L-glutamine and 5 ug/mL heparin). Cells were plated at a density of 5000 cells/well and allowed to acclimate overnight at 37° C. The Dihydropyrazino-Pyrazine Compounds were added to the cultures on Day 2 and cells were kept in culture until Day 9. On Day 9, the cells were fixed with PFA/methanol and the next day assessed for cell number, using for example, SYTO-9 fluorescent DNA dye. Plates were read 48 h later with a laser scanning imager.

For test [7], the system named is patient-derived GBM cell line 378. The experiment in a line: Gliomasphere Cell Number Assay. The format is cell-based. To be noted: cell line 378, Recurrent, MGMT status −; 50% cell numbers vs DMSO control, Day 2 to Day 9; read-out: IC50 Cell Survival. As to the method: as §2
Test [8] has as its system patient-derived GBM cell line 206. The experiment in a line: Gliomasphere Cell Number Assay. The class given is cell-based. To be noted: cell line 206, Recurrent, MGMT Unkn/Highly Expressed; 50% cell numbers vs DMSO control, Day 2 to Day 9; read-out: IC50 Cell Survival. As to the method:
as §2

The subject of test [9] is patient-derived GBM cell line 277. The experiment in a line: Gliomasphere Cell Number Assay. The format is cell-based. To be noted: cell line 277, Secondary/Recurrent; 50% cell numbers vs DMSO control, Day 2 to Day 9; read-out: IC50 Cell Survival. As for the experimental part: as §2
For test [10], the system named is patient-derived GBM cell line 296. The experiment in a line: Gliomasphere Cell Number Assay. The format is cell-based. The conditions noted are these: cell line 296, Recurrent, MGMT status −; 50% cell numbers vs DMSO control, Day 2 to Day 9; read-out: IC50 Cell Survival. As to the method: as §2
Test [11] relates to patient-derived GBM cell line 254. Kind of test: Gliomasphere Cell Number Assay. The format is cell-based. To be noted: cell line 254, Recurrent; 50% cell numbers vs DMSO control, Day 2 to Day 9; read-out: IC50 Cell Survival. As for the experimental part: as §2
The subject of test [12] is patient-derived GBM cell line 157. Kind of test: Gliomasphere Cell Number Assay. To be noted: cell line 157, Primary, MGMT status −; 50% cell numbers vs DMSO control, Day 2 to Day 9; read-out: IC50 Cell Survival. The format is cell-based. As to the method: as §2
Test [13] deals with patient-derived GBM cell line 336. Kind of test: Gliomasphere Cell Number Assay. The class given is cell-based. The conditions noted are these: cell line 336, Recurrent, MGMT status +; 50% cell numbers vs DMSO control, Day 2 to Day 9; read-out: IC50 Cell Survival. As to the method: as §2
Test [14] relates to patient-derived GBM cell line 347. Kind of test: Gliomasphere Cell Number Assay. The conditions noted are these: cell line 347, Recurrent, MGMT status −; 50% cell numbers vs DMSO control, Day 2 to Day 9; read-out: IC50 Cell Survival. The class given is cell-based. As for the experimental part:
as §2

Test [15] concerns patient-derived GBM cell line 250. Kind of test: Gliomasphere Cell Number Assay. The class given is cell-based. To be noted: cell line 250, Recurrent, MGMT Unkn/Highly Expressed; 50% cell numbers vs DMSO control, Day 2 to Day 9; read-out: IC50 Cell Survival. As for the experimental part:
as §2

In test [16] the test system is HF2354 PDX (GBM neurosphere line HF2354). The experiment in a line: Patient derived xenograft (PDX) survival study. The class given is in vivo, nude mouse. The conditions noted are these: HF2354 PDX in nude mice; 10 mg/kg oral gavage once a day, Monday through Friday. As to the method:
FIG. 2: Kaplan-Meier survival analysis for HF2354 PDX line (end of study). Treatment schedule for survival (Rx) and target hit (TH) are indicated.
Immunocompromised mice (nude mouse NCRNU-M, TACONIC) were implanted with a GBM neurosphere line derived from fresh surgical specimens. The cell line was characterized as following:
Patient derived xenograft (PDX) treatments started four weeks prior to when the first animal was expected to become symptomatic. […] Control animals were administered vehicle alone. Target hit cohorts were treated with one dose of each compound and sacrificed 2 and 24 h later (n=3/group). As necessary, fluids and supplemental food were administered to ameliorate weight loss.
A general note: In xenograft studies the graft and the host belong to different species.

For test [17], the system named is patient-derived GBM cell line 217. The experiment in a line: Combination effect of Compound 1 and TMZ on cell survival (fractional product). The class given is cell-based. The conditions noted are these: 168 h, 7 days, read-out: % Actual inh. An excerpt: (§3) TMZ is an alkylating agent that delivers a methyl group to the purine bases of DNA (O^6-guanine; N^7-guanine and N^3-adenine). The cytotoxic lesion, O^6-methylguanine (O^6-MeG), caused by TMZ can be directly removed by methylguanine methyltransferase (MGMT) via direct repair and can also activate mechanisms of mismatch repair (MMR). Futile cycles of MMR lead to the formation of double-stranded DNA breaks and activation of the DNA-PK mediated mechanisms of double-stranded break repair.
(§4) Tumorspheres grown under tumorsphere culture conditions were harvested, dissociated into single cells, and plated at 5,000 cells/well in 96-well plates. […] When the value of the column % actual inhibition divided by % inhibition calculated based on summation is >1=synergism, ˜1=summation, <1=antagonism.

The subject of test [18] is patient-derived GBM cell line 206. The test is described as above. To be noted: 168 h, 7 days, read-out: % Actual inh. The class given is cell-based.
From the text: as §3, §4

Each structure is given as a SMILES string.

`CO[C@H]1CC[C@H](N2C(=O)CNc3ncc(-c4ccc(C(C)(C)O)nc4)nc32)CC1` [Compound 2, 7-(6-(2-hydroxypropan-2-yl)pyridin-3-yl)-1-((1r,4r)-4-methoxycyclohexyl)-3,4-dihydropyrazino-[2,3-b]pyrazin-2(1H)-one]: the 50% inhibitory concentration (IC50) in test [1] worked out at 68.9 nM; in [2] it was 1700 nM; in test [3] it was 244 nM; in [4] it was 65.1 nM; in test [5], 76.7 nM; in [6], 96.3 nM. The IC50 came to 156 nM in test [7]; 118 nM in test [8]; 106 nM in [9]; 257 nM in test [10]; 216 nM in test [11]; 171 nM in [12]. The values for the IC50 in [13], in test [14] and in test [15] were 866 nM, 173 nM and 50.7 nM, respectively. The “survival (Kaplan-Meier)” value in test [16] is “No effect in survival”.
Take `Cn1nnc2c(C(N)=O)ncn2c1=O` [TMZ, Temozolomide]: the inhibition at 25 µM in test [17] (TMZ 25 μM alone) turned out to be 69%; in [18] (TMZ 25 μM alone) it was 11.4%. In addition, the inhibition at 50 µM in [17] (TMZ 50 μM alone) stood at 73%; in test [18] (TMZ 50 μM alone) it was 0%. Besides, the inhibition at 100 µM was 77% in test [17] (TMZ 100 μM alone) and 0% in test [18] (TMZ 100 μM alone). The inhibition at 200 µM in [18] (TMZ 200 μM alone) was determined as 4.3%.
